# Read-outs that look alike come from different tables or passages of the source.
# Columns and labels:
# NCI/ADR-RES = assay: NCI-60 five-dose assay; assay type: cell-based, human; conditions: NCI/ADR-RES (Ovarian Cancer), 48 h; for GI50 / CC50: Homo sapiens; for GI50: read-out: GI50 Conc. per Cell Line; for CC50: read-out: LC50 (the source's name)
# HCC-2998 = assay: NCI-60 five-dose assay; assay type: cell-based, human; conditions: HCC-2998 (Colon Cancer), 48 h; for GI50 / CC50: Homo sapiens; for GI50: read-out: GI50 Conc. per Cell Line; for CC50: read-out: LC50 (the source's name)
# RPMI-8226 = assay: NCI-60 five-dose assay; assay type: cell-based, human; conditions: RPMI-8226 (Leukemia), 48 h; for GI50 / CC50: Homo sapiens; for GI50: read-out: GI50 Conc. per Cell Line; for CC50: read-out: LC50 (the source's name)
# K-562 = assay: NCI-60 five-dose assay; assay type: cell-based, human; conditions: K-562 (Leukemia), 48 h; for GI50 / CC50: Homo sapiens, K562; for GI50: read-out: GI50 Conc. per Cell Line; for CC50: read-out: LC50 (the source's name)
# LOX IMVI = assay: NCI-60 five-dose assay; assay type: cell-based, human; conditions: LOX IMVI (Melanoma), 48 h; for GI50 / CC50: Homo sapiens; for GI50: read-out: GI50 Conc. per Cell Line; for CC50: read-out: LC50 (the source's name)
# MDA-MB-231 = assay: NCI-60 five-dose assay; assay type: cell-based, human; conditions: MDA-MB-231 (Breast Cancer), 48 h; for GI50 / CC50: Homo sapiens; for GI50: read-out: GI50 Conc. per Cell Line; for CC50: read-out: LC50 (the source's name)
# NCI-H322M = assay: NCI-60 five-dose assay; assay type: cell-based, human; conditions: NCI-H322M (Non-Small Cell Lung Cancer), 48 h; for GI50 / CC50: Homo sapiens; for GI50: read-out: GI50 Conc. per Cell Line; for CC50: read-out: LC50 (the source's name)
# Leukemia subpanel = assay: NCI-60 five-dose assay, subpanel; assay type: cell-based, human; conditions: for GI50: Homo sapiens, Leukemia, average sensitivity of all subpanel cell lines, read-out: GI50 Subpanel MID b
# 786-0 = assay: NCI-60 five-dose assay; assay type: cell-based, human; conditions: 786-0 (Renal Cancer), 48 h; for GI50 / CC50: Homo sapiens; for GI50: read-out: GI50 Conc. per Cell Line; for CC50: read-out: LC50 (the source's name)
# EGFR = EGFR (Homo sapiens, UniProt P00533); assay: EGFR inhibitory assay
# Sequence of EGFR (P00533 669-1210): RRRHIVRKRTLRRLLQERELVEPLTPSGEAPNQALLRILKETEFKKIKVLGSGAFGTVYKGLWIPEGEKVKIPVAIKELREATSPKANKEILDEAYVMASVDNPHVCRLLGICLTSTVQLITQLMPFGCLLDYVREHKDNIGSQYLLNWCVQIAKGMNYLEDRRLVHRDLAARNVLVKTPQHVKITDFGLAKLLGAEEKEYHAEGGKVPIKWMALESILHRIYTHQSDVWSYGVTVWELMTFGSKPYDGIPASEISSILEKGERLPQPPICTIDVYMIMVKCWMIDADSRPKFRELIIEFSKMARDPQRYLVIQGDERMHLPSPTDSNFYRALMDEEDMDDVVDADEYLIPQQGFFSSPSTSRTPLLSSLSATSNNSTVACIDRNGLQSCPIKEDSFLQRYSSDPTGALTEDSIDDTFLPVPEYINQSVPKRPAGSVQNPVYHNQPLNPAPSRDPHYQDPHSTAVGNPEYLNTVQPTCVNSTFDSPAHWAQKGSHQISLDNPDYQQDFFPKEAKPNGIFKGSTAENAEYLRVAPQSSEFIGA
# PC-3 = assay: NCI-60 five-dose assay; assay type: cell-based, human; conditions: PC-3 (Prostate Cancer), 48 h; for GI50: read-out: GI50 Conc. per Cell Line
# HCT-15 = assay: NCI-60 five-dose assay; assay type: cell-based, human; conditions: HCT-15 (Colon Cancer), 48 h; for GI50 / CC50: Homo sapiens; for GI50: read-out: GI50 Conc. per Cell Line; for CC50: read-out: LC50 (the source's name)
# [1] = test system: full panel of 60 human tumor cell lines; assay: NCI-60 five-dose assay, full panel; assay type: cell-based
# CNS Cancer subpanel = assay: NCI-60 five-dose assay, subpanel; assay type: cell-based, human; conditions: for GI50 Selectivity Ratio (MID a/MID b): CNS Cancer subpanel; for GI50: Homo sapiens, CNS Cancer, average sensitivity of all subpanel cell lines, read-out: GI50 Subpanel MID b
# Ovarian Cancer subpanel = assay: NCI-60 five-dose assay, subpanel; assay type: cell-based, human; conditions: for GI50: Homo sapiens, Ovarian Cancer, average sensitivity of all subpanel cell lines, read-out: GI50 Subpanel MID b; for GI50 Selectivity Ratio (MID a/MID b): Ovarian Cancer subpanel
# UO-31 = assay: NCI-60 five-dose assay; assay type: cell-based, human; conditions: UO-31 (Renal Cancer), 48 h; for GI50 / CC50: Homo sapiens; for GI50: read-out: GI50 Conc. per Cell Line; for CC50: read-out: LC50 (the source's name)
# SF-268 = assay: NCI-60 five-dose assay; assay type: cell-based, human; conditions: SF-268 (CNS Cancer), 48 h; for GI50 / CC50: Homo sapiens; for GI50: read-out: GI50 Conc. per Cell Line; for CC50: read-out: LC50 (the source's name)
# SF-295 = assay: NCI-60 five-dose assay; assay type: cell-based, human; conditions: SF-295 (CNS Cancer), 48 h; for GI50 / CC50: Homo sapiens; for GI50: read-out: GI50 Conc. per Cell Line; for CC50: read-out: LC50 (the source's name)
# EKVX = assay: NCI-60 five-dose assay; assay type: cell-based, human; conditions: EKVX (Non-Small Cell Lung Cancer), 48 h; for GI50 / CC50: Homo sapiens; for GI50: read-out: GI50 Conc. per Cell Line; for CC50: read-out: LC50 (the source's name)
# OVCAR-5 = assay: NCI-60 five-dose assay; assay type: cell-based, human; conditions: OVCAR-5 (Ovarian Cancer), 48 h; for GI50 / CC50: Homo sapiens; for GI50: read-out: GI50 Conc. per Cell Line; for CC50: read-out: LC50 (the source's name)
# [2] = average sensitivity of all cell lines, read-out: MID a (GI50)
# [3] = five-dose assay, range over cell lines, read-out: GI50 range over the examined cell lines
smiles,measurement,setting,value
"O=C(NN=Cc1ccc([N+](=O)[O-])cc1)c1ccc2[nH]c(-c3ccc(Cl)cc3)nc2c1 [Compound 4c, N′-(4-Nitrobenzylidene)-2-(4-chlorophenyl)-1H-benzimidazole-5-carbohydrazide]",GI50,NCI/ADR-RES,12.6 µM
same,CC50,NCI/ADR-RES,> 100 µM
same,TGI,NCI/ADR-RES,>100 µM
same,TGI,HCC-2998,4.81 µM
same,GI50,HCC-2998,1.48 µM
same,CC50,HCC-2998,28.1 µM
same,GI50,RPMI-8226,0.461 µM
same,CC50,RPMI-8226,> 100 µM
same,TGI,RPMI-8226,2.41 µM
same,GI50,K-562,0.499 µM
same,CC50,K-562,54.6 µM
same,TGI,K-562,8.44 µM
same,GI50,LOX IMVI,1.34 µM
same,CC50,LOX IMVI,7.74 µM
same,TGI,LOX IMVI,3.22 µM
same,GI50,MDA-MB-231,3.75 µM
same,CC50,MDA-MB-231,69.1 µM
same,TGI,MDA-MB-231,13.90 µM
same,GI50,NCI-H322M,5.04 µM
same,CC50,NCI-H322M,> 100 µM
same,TGI,NCI-H322M,26.40 µM
same,GI50,Leukemia subpanel,0.55 µM
same,TGI,786-0,15.70 µM
same,GI50,786-0,3.92 µM
same,CC50,786-0,58.2 µM
same,IC50,EGFR,0.11 ± 0.01 µM
same,GI50,PC-3; Homo sapiens,0.42 µM
same,TGI,PC-3,15.30 µM
same,TGI,HCT-15,13.30 µM
same,GI50,HCT-15,2.6 µM
same,CC50,HCT-15,> 100 µM
same,GI50,[1]; [2],3.28 µM
same,GI50,[1]; [3],0.42 to 8.99 µM
same,GI50 Selectivity Ratio (MID a/MID b),CNS Cancer subpanel,0.81
same,GI50,CNS Cancer subpanel,4.05 µM
same,GI50,Ovarian Cancer subpanel,5.77 µM
same,GI50 Selectivity Ratio (MID a/MID b),Ovarian Cancer subpanel,0.57
same,GI50,UO-31,6.05 µM
same,CC50,UO-31,> 100 µM
same,TGI,UO-31,38.30 µM
same,GI50,SF-268,4.97 µM
same,CC50,SF-268,> 100 µM
same,TGI,SF-268,24.30 µM
same,GI50,SF-295,3.4 µM
same,CC50,SF-295,43.8 µM
same,TGI,SF-295,13.10 µM
same,TGI,EKVX,21.20 µM
same,GI50,EKVX,3.19 µM
same,CC50,EKVX,> 100 µM
same,GI50,OVCAR-5,4.43 µM
same,CC50,OVCAR-5,> 100 µM
same,TGI,OVCAR-5,37.80 µM
"O=C(NN=Cc1ccc(Cl)cc1)c1ccc2[nH]c(-c3ccc(Cl)cc3)nc2c1 [Compound 4e, N′-(4-Chlorobenzylidene)-2-(4-chlorophenyl)-1H-benzimidazole-5-carbohydrazide]",GI50,NCI/ADR-RES,1.83 µM
same,CC50,NCI/ADR-RES,12.7 µM
same,TGI,NCI/ADR-RES,4.43 µM
same,TGI,HCC-2998,3.44 µM
same,GI50,HCC-2998,1.82 µM
same,CC50,HCC-2998,6.5 µM
same,GI50,RPMI-8226,1.16 µM
same,CC50,RPMI-8226,16.5 µM
same,TGI,RPMI-8226,3.52 µM
same,GI50,K-562,0.969 µM
same,CC50,K-562,12.3 µM
same,TGI,K-562,3.23 µM
same,GI50,LOX IMVI,1.57 µM
same,CC50,LOX IMVI,5.5 µM
same,TGI,LOX IMVI,2.94 µM
same,GI50,MDA-MB-231,1.85 µM
same,CC50,MDA-MB-231,7.67 µM
same,TGI,MDA-MB-231,3.77 µM
same,GI50,NCI-H322M,2.15 µM
same,CC50,NCI-H322M,19.8 µM
same,TGI,NCI-H322M,5.26 µM
same,GI50,Leukemia subpanel,1.33 µM
same,GI50 Selectivity Ratio (MID a/MID b),Leukemia subpanel; Leukemia subpanel,1.35
same,TGI,786-0,3.48 µM
same,GI50,786-0,1.79 µM
same,CC50,786-0,6.76 µM
same,IC50,EGFR,0.09 ± 0.01 µM
same,LC50,PC-3; Homo sapiens,7.05 µM
same,GI50,PC-3; Homo sapiens,1.55 µM
same,TGI,PC-3,3.30 µM
same,TGI,HCT-15,3.03 µM
same,GI50,HCT-15,1.42 µM
same,CC50,HCT-15,6.46 µM
same,GI50,[1]; [2],1.79 µM
same,LC50,"[1]; five-dose assay, range over cell lines",5.73 to 77.9 µM
same,GI50,[1]; [3],0.97 to 4.93 µM
same,GI50 Selectivity Ratio (MID a/MID b),CNS Cancer subpanel,0.92
same,GI50,CNS Cancer subpanel,1.94 µM
same,GI50,Ovarian Cancer subpanel,1.81 µM
same,GI50 Selectivity Ratio (MID a/MID b),Ovarian Cancer subpanel,0.99
same,GI50,UO-31,1.57 µM
same,CC50,UO-31,5.67 µM
same,TGI,UO-31,2.99 µM
same,GI50,SF-268,2.08 µM
same,CC50,SF-268,9.09 µM
same,TGI,SF-268,4.35 µM
same,GI50,SF-295,1.86 µM
same,CC50,SF-295,6.56 µM
same,TGI,SF-295,3.50 µM
same,TGI,EKVX,3.68 µM
same,GI50,EKVX,1.82 µM
same,CC50,EKVX,7.43 µM
same,GI50,OVCAR-5,1.85 µM
same,CC50,OVCAR-5,8.52 µM
same,TGI,OVCAR-5,3.97 µM

# Source: publication PMC10819888, “Benzimidazole-Based Derivatives as Apoptotic Antiproliferative Agents: Design, Synthesis, Docking, and Mechanistic Studies” (Molecules, 2024)
